Measurements reported in patent US20200069775A1, “BRAIN OSTEOCALCIN RECEPTOR AND COGNITIVE DISORDERS” (The Trustees of Columbia University in the City of New York, priority 2017, published 2020).
Blank lines part the entries; values can stand above or below the molecule they belong to.

How the values were obtained:
[1] = tested on: 3 month-old WT mice; test: Alendronate treatment with or without osteocalcin, MWMT and NOR; assay type: in vivo, mouse
Procedure: For plasma injection experiments, 100 μl of plasma were injected 8 times during 24 days, via tail vein. Each group described is represented individually in each panel. For osteocalcin delivery in WT mice, pumps (Alzet micro-osmotic pump, Model 1002) delivering osteocalcin (30 ng/hr for 12 month-old and 90 ng/hr for 16 month-old mice), or vehicle, were surgically installed subcutaneously in the back of mice. […] Control mice receiving vehicle or mice receiving alendronate were implanted with osmotic pumps delivering vehicle only.
Morris water maze test: Animals are transported to the testing room in their home cages, and left undisturbed for at least 30 minutes prior to the first trial. The maze is comprised of a large swimming pool (150cm diameter) filled with water (23° C.) made opaque with non-toxic white paint. The pool is located in a brightly lit room filled with visual cues, including geometric figures on the walls of the maze demarking the four fixed starting positions of the trials, at (12:00, 3:00, 6:00 and 9:00). A 15 cm round platform is hidden 1 cm beneath the surface of the water at a fixed position. Each daily trial block consisted of four swimming trials, with each mouse starting from the same randomly chosen starting position. The starting position is varied between days. On day 1, mice that fail to find the platform within 2 min are guided to the platform. They must remain on the platform for 15 s before they are returned to their home cage. Mice are not guided to the platform after day 1, and the time it takes them to reach the platform over repeated trials ([…] for the next 10 days) is recorded as a measure of spatial learning.
Novel object recognition test (NOR): The NOR paradigm assesses the rodent's ability to recognize a novel object in the environment. The NOR task will be conducted, as previously described7, in an opaque plastic box using 2 different objects: (1) a clear plastic funnel (diameter 8.5 cm, maximal height 8.5 cm) and (2) a black plastic box (9.5 cm^3). These objects elicit equal levels of exploration as determined in pilot experiments (Denny, C. A., et al., 2012, Hippocampus 22:1188-1201; Oury, F., et al., 2013, Cell 155:228-241). The NOR paradigm consists of 3 exposures over the course of 3 days. On day 1, the habituation phase, mice are given 5 minutes to explore the empty arena, without any objects. On day 2, the familiarization phase, mice are given 10 minutes to explore 2 identical objects, placed at opposite ends of the box. On day 3, the test phase, mice are given 15 minutes to explore 2 objects, one novel object and a copy of the object from the familiarization phase. The object that serves as the novel object (either the funnel or the box) as well as the left/right starting position of the objects are counterbalanced within each group. Mice are placed in the center of the arena at the start of each exposure. […] Preference for the novel object is assessed based on the fraction of time that a mouse spends exploring the novel object compared to the familiar object. Exploration is scored from video recordings of each exposure and recorded using the Stopwatch program. […]
Streptavidin were added for 30 minutes at room temperature followed by PBS washes. […] For hormonal measurement; circulating levels of the carboxylated, undercarboxylated or uncarboxylated forms of osteocalcin were measured by ELISA. CTX content in serum (ng/ml) were measured with specific ELISAs (RatLaps™ (CTX-I) EIA (Immunodiagnosticsystems).

[2] = tested on: brainstem neurons (dorsal raphe 5-HT neurons, locus coeruleus, GABAergic interneurons); test: Whole cell current clamp recording in brainstem slices; assay type: cell-based, mouse; details: 3 μM, current clamp in slices
Procedure: Brain slice preparations and electrophysiological recordings were performed according to methods known in the art. Briefly, WT mice were anesthetized with ether and then decapitated. The brains were rapidly removed and immersed in an oxygenated bath solution at 40° C. containing (in mM): sucrose 220, KCl 2.5, CaCl2 1, MgC12 6, NaH2PO4 1.25, NaHCO3 26, and glucose 10 pH 7.3 with NaOH. Coronal slices (350 μm thick) containing dorsal raphe (DR) were cut on a vibratome and maintained in a holding chamber with artificial cerebrospinal fluid (ACSF) (bubbled with 5% CO2 and 95% O2) containing (in mM): NaCl 124, KCl 3, CaCl2 2, MgCl2 2, NaH2PO4 1.23, NaHCO3 26, glucose 10, pH 7.4 with NaOH, and were transferred to a recording chamber constantly perfused with bath solution (330 C) at 2 ml/min after at least a 1 hr recovery. Whole-cell current clamp was performed to observe action potentials in DR serotoninergic (5-HT) neurons with a Multiclamp 700A amplifier (Axon instrument, CA). Patch pipettes with a tip resistance of 4-6 MΩ were made of borosilicate glass (World Precision Instruments) with a Sutter pipette puller (P-97) and filled with a pipette solution containing (in mM): K-gluconate (or Cs-gluconate) 135, MgCl2 2, HEPES 10, EGTA 1.1, Mg-ATP 2, Na2-phosphocreatine 10, and Na2-GTP 0.3, pH 7.3 with KOH. After a giga-Ohm (GΩ) seal and whole-cell access were achieved, the series resistance (between 20 and 40 MΩ) was partially compensated by the amplifier. […] All data were sampled at 3-10 kHz and filtered at 1-3 kHz with an Apple Macintosh computer using Axograph 4.9 (Axon Instruments). Electrophysiological data were analyzed with Axograph 4.9 and plotted with Igor Pro software (WaveMetrics, Lake Oswego, Oreg.).

[3] = Blood brain barrier crossing: subcutaneous pump infusion, content in blood, bone and brain parts by ELISA; assay type: in vivo, mouse; details: ob/ob mice, subcutaneous infusion 50 ng/hour, seven days; positive control
Procedure: Osteocalcin−/−, Gprc6a−/−, Osteocalcin-mCherry, and Osteocalcin foxed mice have been previously described (Ducy et al., 1996, Nature 382:448-452; Oury et al., 2011, Cell 144:796-809). Mouse genotypes were determined by PCR. For all experiments, controls were littermate female WT, Cre-expressing, or flox/flox. All mice were maintained on a pure 129-Sv genetic background except for the inducible deletion Osteocalcin model (mix background: 25% C57/BL6 and 75% 129sv). For inducible gene deletion mice, tamoxifen was prepared in corn oil and injected intraperitoneally (IP) (1 mg/20g of body weight) over one week. For osteocalcin delivery to pregnant mice, IP injections (240 ng/day) were performed as soon as a plug was present daily until delivery (E0.5-E18.5). For osteocalcin or leptin infusion in adult Osteocalcin−/− or ob/ob mice, pumps (Alzet micro-osmotic pump, Model 1002) delivering osteocalcin (300 ng/hr), leptin (50 ng/hr), or vehicle were surgically installed subcutaneously in the backs of 3-month old mice. For the postnatal rescue of cognitive functions in Osteocalcin−/− mice, osteocalcin (10 ng/hour) or vehicle were delivered intrasubventricularly (icv) as previously described (Ducy et al., 2000, Cell 100:197-207). Leptin and osteocalcin content in sera and tissues were determined by ELISA.
To understand how this behavioral phenotype develops, whether osteocalcin crosses the blood brain barrier (BBB) was tested by installing pumps that subcutaneously delivered vehicle or uncarboxylated osteocalcin (50 ng/hour) in three-month-old Osteocalcin−/− mice. The positive control for this experiment was subcutaneous infusion of leptin (50 ng/hour) in 3 month-old ob/ob mice, since leptin is known to cross the BBB (Banks et al., 1996, Peptides 17:305-311). Seven days later, osteocalcin and leptin content were measured in blood, bone, and in various parts of the brain in Osteocalcin−/− and ob/ob mice, respectively.

[4] = tested on: Tph2, Th, Gad1 expression in brainstem and midbrain explants; test: Gene expression (qPCR) in brainstem and midbrain explants; assay type: cell-based, mouse; details: leptin positive control; WT or Gprc6a−/− brainstem explants
Procedure: For gene expression studies, RNA was isolated from primary neurons or tissue using TRIZOL® (Invitrogen). cDNA synthesis was performed following a standard protocol from Invitrogen and qPCR analyses were done using specific quantitative PCR primers from SABiosciences (http://www.sabiosciences.com/RT2PCR.php).
Brains were dissected and incubated for 30 minutes in ice cold oxygenated artificial cerebrospinal fluid (ACSF). Brains were then sliced at 500 μm at the midbrain, −1.55 to −2.35 mm from the bregma, and at the level of the brainstem, from −4.04 to −4.48 mm and from −4.60 to −5.20 mm from the bregma, to include the median and dorsal raphe, respectively. These slices were incubated in ACSF for 1 h, constantly oxygenated (95% O2 and 5% CO2) […], after which they were treated with either osteocalcin (10 ng/ml) or PBS for four hours. Expression of Tph2, TH, GAD 1, GAD2, and Ddc was measured by qPCR.
To determine if osteocalcin acts directly on neurons to modulate neurotransmitter synthesis, several types of assays were performed. First, brainstem and midbrain explants from WT and Gprc6a^−/− mice were generated. Brains were sliced (500 μm) at the level of the median and dorsal raphe of the brainstem (from −4.04 to −4.48 mm and from −4.60 to −5.20 mm, respectively), so that they would be enriched in serotonin-producing neurons, as well as at the level of substantia nigrae and ventral tegmental areas (VTA) of the midbrain (from −1.55 to −2.35 mm and from −2.55 to −3.25 mm, respectively). Enrichment in serotoninergic and catecholaminergic neurons in these explants was verified by their high Tph2 and Th expression. While leptin, used here as a positive control, reduced, as it should, Tph2 expression in WT or Gprc6a^−/− brainstem explants, osteocalcin ([…]) increased expression of this gene 2.5 fold in both WT and Gprc6a^−/− explants. (FIG. 3D). […] Third, to further confirm that osteocalcin signals in neurons of the hindbrain, calcium flux in MPHN treated with undercarboxylated or carboxylated osteocalcin (FIG. 3F) was measured.

learning in the MWMT ([1]; alendronate-treated mice): delay in learning in the MWMT
memory in NOR ([1]; alendronate-treated mice): memory deficit in NOR
Molecule: NCCCC(O)(P(=O)(O)O)P(=O)(O)O [alendronate]
bone resorption ([1]; 3 week-long treatment): inhibited bone resorption
circulating levels of bioactive osteocalcin ([1]; 3 week-long treatment): decreased the circulating levels of bioactive osteocalcin

Molecule: CN1CC(=O)N=C1N.NCCc1c[nH]c2ccc(O)cc12.O=S(=O)(O)O [serotonin creatinine sulfate complex, reference compound]
action potentials in dorsal raphe 5-HT neurons [2]: inhibited action potentials

B1: leptin (protein, UniProt P41160 22-167, looked up)
Leptin: VPIQKVQDDTKTLIKTIVTRINDISHTQSVSAKQRVTGLDFIPGLHPILSLSKMDQTLAVYQQVLTSLPSQNVLQIANDLENLRDLLHLLAFSKSCSLPQTSGLQKPESLDGVLEASLYSTEVVALSRLQGSLQDILQQLDVSPEC
notes: adipocyte-derived hormone, positive control known to cross the BBB
leptin content in parts of the brain [3]: could be detected in the brainstem and hypothalamus
Tph2 expression [4]: reduced
